# Results as given in US11021448B2, “1,3-dihydro-1,4-benzodiazepine-2-thiones for the treatment of CNS related diseases” (priority 2016, dated 2021).
# Like-named read-outs stand apart in the source and are kept apart here.
# Legend:
# hM1 = molecular target: T1, hM1 (Homo sapiens, UniProt P11229); experiment: FLIPR intracellular calcium assay for modulator activity at the muscarinic M1 receptor in CHO human M1 cells; assay type: cell-based
# T1 construct: expressed in transfected cells; host or cells: CHO
# T1 sequence (P11229 1-460): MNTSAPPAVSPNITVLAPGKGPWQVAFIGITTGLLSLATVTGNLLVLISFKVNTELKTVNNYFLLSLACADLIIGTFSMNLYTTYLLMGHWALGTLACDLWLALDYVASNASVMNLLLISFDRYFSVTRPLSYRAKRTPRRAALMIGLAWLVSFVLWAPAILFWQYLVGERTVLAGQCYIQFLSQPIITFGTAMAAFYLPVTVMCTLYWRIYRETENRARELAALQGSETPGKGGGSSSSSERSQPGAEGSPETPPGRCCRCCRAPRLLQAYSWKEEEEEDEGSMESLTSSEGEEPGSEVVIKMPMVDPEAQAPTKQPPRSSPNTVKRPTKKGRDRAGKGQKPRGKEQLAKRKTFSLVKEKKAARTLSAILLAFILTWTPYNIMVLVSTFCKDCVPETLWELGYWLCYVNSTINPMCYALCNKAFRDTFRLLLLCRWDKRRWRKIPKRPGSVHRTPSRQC
# Protocol: The assay study the effect of several concentrations of test compounds on basal or acetylcholine-stimulated Ca^2+ levels using FLIPR.
# The cell plate and the diluted compounds (1% DMSO final concentration) are placed on the platform of the FLIPR and the door closed. A signal test to check background fluorescence and basal fluorescence signal is performed. Laser intensity is adjusted if necessary. Two minutes preincubation with the diluted test compounds is provide to determine any agonist activity on the M1 receptor by comparison to 30 nM Acetylcholine control. In order to determine any modulator activity the diluted compounds were added to cells and after two minutes preincubation, the EC20 of acetylcholine is added followed by another two minutes preincubation before the measurement of intracellular Ca^2+ with a FLIPR (Molecular Devices).
# GABA-A alpha5 (α5β3γ2) = molecular target: T2, GABA-A alpha5 (α5β3γ2) (Homo sapiens, UniProt P18507+P31644); experiment: GABA A radioligand binding assay, competition for [3H]flumazenil; details: [3H]flumazenil 1 nM, HEK293 membranes
# T2 construct: expressed in transfected cells; host or cells: HEK293 (transient transfection; membranes)
# Protocol: The ability of compounds present invention to bind to GABA A receptor subtypes was determined by competition for [^3H]flumazenil (85 Ci/mmol; Roche) binding to HEK293 cells expressing human (transiently transfected) receptors of composition α1β2γ2, and α5β3γ2.
# Membrane preparation Cell pellets were suspended in Krebs-tris buffer (5 mM KCl, 1.25 mM CaCl2), 1.25 mM MgCl2, 120 mM NaCl, 15 mM Tris; pH 7.5; binding assay buffer), homogenized by polytron for ca. 20 sec on ice and centrifuged for 60 min at 4° C. (50000 g; Sorvall, rotor: SM24=20000 rpm). The cell pellets were resuspended in Krebs-tris buffer and homogenized by polytron for ca. 15 sec on ice. Protein was measured (Bradford method, Bio-Rad) and aliquots of 1 mL were prepared and stored at −80° C.
# Radioligand binding assays were carried out in a volume of 200 uL (96-well plates) which contained 100 μL of cell membranes, [3H]flumazenil at a concentration of 1 nM for a1, a2, a3 subunits and 1 nM for a5 subunits and the test compound in the range of 3.16 μM to 0.1 μM. Nonspecific binding was defined by 10^−5 M diazepam and typically represented less than 5% of the total binding. […] After drying, filter-retained radioactivity was detected by liquid scintillation counting.
# Ki values were calculated using Excel-Fit (Microsoft) and are the means of two determinations.
# GABA A = experiment: Oocyte EP; assay type: cell-based; details: at 1 μM
smiles,measurement,setting,value
"CC(C)[C@@H]1N=C(c2ccccc2F)c2cc(Cl)ccc2NC1=S [Example 5, (3S)-7-chloro-5-(2-fluorophenyl)-3-propan-2-yl-1,3-dihydro-1,4-benzodiazepine-2-thione]",IC50,hM1,80 nM
same,Ki,"GABA-A alpha5 (α5β3γ2); GABA-A alpha 5 (second value, Ki implied), second value",> 36000 nM
same,Ki,GABA-A alpha5 (α5β3γ2); GABA-A alpha5: Ki,> 24000 nM
same,Oocyte EP effect,GABA A,no effect
"CC(=O)OC1C=C(c2ccccc2F)c2cc(Cl)ccc2NC1=S (centres unmarked) [Example 14, [7-chloro-5-(2-fluorophenyl)-2-thioxo-1,3-dihydro-1-benzazepin-3-yl]acetate]",IC50,"hM1; CHO human M1, with EC20 of acetylcholine, FLIPR, read-out: IC50 value hM1 (converted)",649 nM
same,melting point,,214 to 215 °C
"S=C1Nc2ccc(Cl)cc2C(c2ccccc2Cl)=NC1Cc1ccccc1 (centres unmarked) [Example X1, 3-Benzyl-7-chloro-5-(2-chloro-phenyl)-1,3-dihydro-benzo[1,4]diazepine-2-thione]",activity at M1 receptor,hM1,no activity
"S=C1Nc2ccc(Cl)cc2C(c2ccccc2Cl)=NC1CC1CC1 (centres unmarked) [Example X2, 7-chloro-5-(2-chlorophenyl)-3-(cyclopropylmethyl)-1H-benzo[e][1,4]diazepine-2(3H)-thione]",activity at M1 receptor,hM1,no activity
